Measurements published in patent US20260042753A1 (Merck Patent GmbH, priority 2019, published 2026).

Experiments:
c-Kit(V654A) = c-Kit(V654A) (Homo sapiens, UniProt P10721, V654A); assay: c-Kit(V654A) assay; format: biochemical; conditions: Table 1; 200 μM ATP
Protocol: c-Kit(V654A) (N-terminal GST-tagged, recombinant human c-Kit, amino acids 544-end containing the V654A mutation) is incubated with 8 mM MOPS pH 7.0, 0.2 mM EDTA, 250 μM GGMEDIYEFMGGKKK, 10 mM MgAcetate and [gamma-33P-ATP](specific activity approx. 500 cpm/pmol, concentration 200 μM). The reaction is initiated by the addition of the MgATP mix. After incubation for 40 minutes at room temperature, the reaction is stopped by the addition of 3% phosphoric acid solution. 10 μL of the reaction is then spotted onto a P30 filtermat and washed three times for 5 minutes in 75 mM phosphoric acid and once in methanol prior to drying and scintillation counting.

[1] = biological target: mutant cKIT (560-576 and V654A) in GIST430/654 cell line (Homo sapiens (Human), UniProt P10721, DEL560-576/V654A); assay: Cellular testing of cKIT mutant inhibitors: phospho-Y307-cKIT Luminex assay in GIST430/654 cells; format: cell-based; conditions: Table 1; cKIT autophosphorylation, compounds 45 min; read-out: GIST 430/654 IC50
Protocol: Assay Principle for Cellular Testing of cKIT Mutant Inhibitors
The GIST430/654 cell line expressing mutated constitutively active cKIT receptor tyrosine kinase ([…]560-576 and V654A) was employed for assessing cellular potency of compounds. Cellular activity of mutant cKIT was determined by the degree of cKIT autophosphorylation at tyrosine 307 using a Luminex-based bead assay. GIST430/654 cells were plated with 25,000 cells per well of a 96-well plate in 100 μl medium (85% IMDM/15% FCS supplemented with 100 nM Imatinib). At the following day compounds were added in a serial dilution for 45 min. Then, cells were lysed with 90 μl lysis buffer (20 mM Hepes pH 7.5, 200 mM NaCl, 1.5 mM MgCl2×6H2O, 0.4 mM EDTA, 1% Triton-X-100, 1% Phosphatase-Inhibitor II, 20 mM D-Glycerolphosphat, 0.1% Protease-Inhibitor Cocktail III, 0.01% Benzonase) und lysates were cleared by centrifugation through a 96-well filter plate (0.65 μm). Samples were incubated with Luminex-beads which were coupled with an anti-total cKIT antibody overnight at 4° C. under gentle agitation. For detection of phospho-Y307-cKIT a phosphospecific antibody and a species-specific PE-labelled secondary antibody were added. The amount of phospho-Y307-cKIT was determined in a Luminex 200 instrument measuring 100 events per well within 60 seconds.
Counts from samples treated with compounds were calculated as percent of control from solvent treated (0.3% DMSO) samples. Dose-response curves were fitted and IC50 values were determined using Genedata Screener software.

Sequence of mutant cKIT (560-576 and V654A) in GIST430/654 cell line (P10721 other isoform, or with tags, fused parts or gaps V654A/del 1-25/del 560-576 limits assumed): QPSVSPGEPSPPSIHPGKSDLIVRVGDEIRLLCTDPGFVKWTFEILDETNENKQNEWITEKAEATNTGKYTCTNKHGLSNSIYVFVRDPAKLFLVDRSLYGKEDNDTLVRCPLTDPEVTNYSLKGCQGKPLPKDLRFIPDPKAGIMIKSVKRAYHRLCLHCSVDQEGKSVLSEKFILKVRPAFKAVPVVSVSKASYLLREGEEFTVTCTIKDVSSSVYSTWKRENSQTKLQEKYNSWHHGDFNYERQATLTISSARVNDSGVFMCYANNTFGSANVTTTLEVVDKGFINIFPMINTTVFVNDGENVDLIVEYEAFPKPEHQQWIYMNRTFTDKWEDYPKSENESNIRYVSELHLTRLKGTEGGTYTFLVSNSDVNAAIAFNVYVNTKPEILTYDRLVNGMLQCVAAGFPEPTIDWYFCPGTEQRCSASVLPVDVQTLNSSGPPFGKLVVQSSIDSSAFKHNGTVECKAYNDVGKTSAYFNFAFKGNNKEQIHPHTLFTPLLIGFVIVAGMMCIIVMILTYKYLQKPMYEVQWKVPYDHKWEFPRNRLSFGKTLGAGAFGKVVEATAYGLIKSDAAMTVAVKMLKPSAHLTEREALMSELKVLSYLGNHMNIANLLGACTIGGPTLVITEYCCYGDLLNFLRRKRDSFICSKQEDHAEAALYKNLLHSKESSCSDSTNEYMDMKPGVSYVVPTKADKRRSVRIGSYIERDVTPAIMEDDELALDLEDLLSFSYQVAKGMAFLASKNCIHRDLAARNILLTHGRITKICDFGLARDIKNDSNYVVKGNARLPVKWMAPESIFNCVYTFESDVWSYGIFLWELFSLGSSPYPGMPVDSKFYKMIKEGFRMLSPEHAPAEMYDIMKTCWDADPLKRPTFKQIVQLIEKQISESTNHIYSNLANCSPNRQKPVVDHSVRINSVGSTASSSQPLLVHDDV

| Compound | IC50 (c-Kit(V654A)) [nM] | IC50 [1] [nM] |
| --- | --- | --- |
| COCCOc1cc2[nH]nc(-c3cc(-c4ccc(C)nc4)no3)c2cc1Cl [A13, 5-chloro-6-(2-methoxyethoxy)-3-[3-(6-methylpyridin-3-yl)-1,2-oxazol-5-yl]-1H-indazole] | 11 | 300 |
| COCCOc1cc2[nH]nc(-c3cc(-c4ccc(-n5cncn5)cc4)no3)c2cc1Cl [A14, 5-chloro-6-(2-methoxyethoxy)-3-{3-[4-(1H-1,2,4-triazol-1-yl)phenyl]-1,2-oxazol-5-yl}-1H-indazole] | 8.8 | 510 |
| COCCOc1cc2[nH]nc(-c3cc(-c4ccc(S(C)(=O)=O)cc4)no3)c2cc1Cl [A15, 5-chloro-3-[3-(4-methanesulfonylphenyl)-1,2-oxazol-5-yl]-6-(2-methoxyethoxy)-1H-indazole] | 5.8 | 240 |
| COCCOc1cc2[nH]nc(-c3cc(-c4ccc(S(C)(=O)=O)cc4)no3)c2cc1F [A16, 5-fluoro-3-[3-(4-methanesulfonylphenyl)-1,2-oxazol-5-yl]-6-(2-methoxyethoxy)-1H-indazole] | 4.8 | 94 |
| COCCOc1cc2[nH]nc(-c3cc(-c4ccc(NC(C)=O)cc4)no3)c2cc1Cl [A17, N-(4-{5-[5-chloro-6-(2-methoxyethoxy)-1H-indazol-3-yl]-1,2-oxazol-3-yl}phenyl)acetamide] | 5.3 | 130 |
| COCCOc1cc2[nH]nc(-c3cc(-c4ccc(NC(C)=O)cc4)no3)c2cc1F [A18, N-(4-{5-[5-fluoro-6-(2-methoxyethoxy)-1H-indazol-3-yl]-1,2-oxazol-3-yl}phenyl)acetamide] | 8.2 | 160 |
| COCCOc1cc2[nH]nc(-c3cc(-c4ccc(-n5cncn5)cc4)no3)c2cc1F [A21, 5-fluoro-6-(2-methoxyethoxy)-3-{3-[4-(1H-1,2,4-triazol-1-yl)phenyl]-1,2-oxazol-5-yl}-1H-indazole] | 12 | 570 |
| COCCOc1cc2[nH]nc(-c3cc(-c4ccc(C)nc4)no3)c2cc1F [A22, 5-fluoro-6-(2-methoxyethoxy)-3-[3-(6-methylpyridin-3-yl)-1,2-oxazol-5-yl]-1H-indazole] | 32 | 2200 |
| COCCNC(=O)c1ccc2c(-c3cc(-c4ccc(C(=O)N(C)C)cc4)no3)n[nH]c2c1 [A25, 3-{3-[4-(dimethylcarbamoyl)phenyl]-1,2-oxazol-5-yl}-N-(2-methoxyethyl)-1H-indazole-6-carboxamide] | 30 | 5700 |
| COCCOc1cc2[nH]nc(-c3cc(-c4ccc(C(=O)N=S(C)(C)=O)cc4)no3)c2cc1F [A35, N-[dimethyl(oxo)-lambda6-sulfanylidene]-4-{5-[5-fluoro-6-(2-methoxyethoxy)-1H-indazol-3-yl]-1,2-oxazol-3-yl}benzamide] | 6.3 | 170 |
| CCOc1ccc(-c2cc(-c3n[nH]c4cc(OCCOC)c(F)cc34)on2)cn1 [A38, 3-[3-(6-ethoxypyridin-3-yl)-1,2-oxazol-5-yl]-5-fluoro-6-(2-methoxyethoxy)-1H-indazole] | 35 | 4400 |
| COCCOc1cc2[nH]nc(-c3cc(-c4ccc(OCCN5CCOCC5)cc4)no3)c2cc1F [A40, 5-fluoro-6-(2-methoxyethoxy)-3-(3-{4-[2-(morpholin-4-yl)ethoxy]phenyl}-1,2-oxazol-5-yl)-1H-indazole] | 2.7 | 140 |
| COCCOc1cc2[nH]nc(-c3cc(-c4ccc(-n5ccccc5=O)cc4)no3)c2cc1F [A41, 1-(4-{5-[5-Fluoro-6-(2-methoxy-ethoxy)-1H-indazol-3-yl]-isoxazol-3-yl}-phenyl)-1H-pyridin-2-one] | 3.1 | 120 |

Stronger by IC50 (c-Kit(V654A)), values ahead:

| IC50 (c-Kit(V654A)) [nM] | IC50 [1] [nM] | Compound |
| --- | --- | --- |
| 2.4 | 170 | COCCOc1cc2[nH]nc(-c3cc(-c4ccc(C(=O)N5CCN(C)C[C@@H]5C)cc4)on3)c2cc1C#N [A11, 3-(5-{4-[(2S)-2,4-dimethylpiperazine-1-carbonyl]phenyl}-1,2-oxazol-3-yl)-6-(2-methoxyethoxy)-1H-indazole-5-carbonitrile] |
| 0.91 | 160 | COCCOc1cc2[nH]nc(-c3cc(-c4ccc(C(=O)N(C)C)cc4)no3)c2cc1Cl [A12, 4-{5-[5-chloro-6-(2-methoxyethoxy)-1H-indazol-3-yl]-1,2-oxazol-3-yl}-N,N-dimethylbenzamide] |
| 1.7 | 48 | COCCOc1cc2[nH]nc(-c3cc(-c4ccc(C(=O)N(C)C)cc4)no3)c2cc1F [A20, 4-{5-[5-fluoro-6-(2-methoxyethoxy)-1H-indazol-3-yl]-1,2-oxazol-3-yl}-N,N-dimethylbenzamide] |
| 2.1 | 45 | COCCOc1cc2[nH]nc(-c3cc(-c4ccc(C(=O)N5CC(F)C5)cc4)no3)c2cc1F [A26, 5-fluoro-3-{3-[4-(3-fluoroazetidine-1-carbonyl)phenyl]-1,2-oxazol-5-yl}-6-(2-methoxyethoxy)-1H-indazole] |
| 1.2 | 57 | COCCOc1cc2[nH]nc(-c3cc(-c4ccc(C(=O)N5CC[C@@H](F)C5)cc4)no3)c2cc1F [A27, 5-fluoro-3-(3-{4-[(3R)-3-fluoropyrrolidine-1-carbonyl]phenyl}-1,2-oxazol-5-yl)-6-(2-methoxyethoxy)-1H-indazole] |
| 2 | 39 | COCCOc1cc2[nH]nc(-c3cc(-c4ccc(C(=O)N5CC(C#N)C5)cc4)no3)c2cc1F [A28, 1-(4-{5-[5-fluoro-6-(2-methoxyethoxy)-1H-indazol-3-yl]-1,2-oxazol-3-yl}benzoyl)azetidine-3-carbonitrile] |
| 0.95 | 390 | COCCOc1cc2[nH]nc(-c3cc(-c4ccc(C(=O)N5CC(S(C)(=O)=O)C5)cc4)no3)c2cc1F [A29, 5-fluoro-3-{3-[4-(3-methanesulfonylazetidine-1-carbonyl)phenyl]-1,2-oxazol-5-yl}-6-(2-methoxyethoxy)-1H-indazole] |
| 0.73 | 56 | COCCOc1cc2[nH]nc(-c3cc(-c4ccc(C(=O)N5CCS(=O)(=O)CC5)cc4)no3)c2cc1F [A30, 4-(4-{5-[5-fluoro-6-(2-methoxyethoxy)-1H-indazol-3-yl]-1,2-oxazol-3-yl}benzoyl)-1lambda6-thiomorpholine-1,1-dione] |
| 1.1 | 35 | COCCOc1cc2[nH]nc(-c3cc(-c4ccc(C(=O)N(C)C5CC5)cc4)no3)c2cc1F [A31, N-cyclopropyl-4-{5-[5-fluoro-6-(2-methoxyethoxy)-1H-indazol-3-yl]-1,2-oxazol-3-yl}-N-methylbenzamide] |
| 0.91 | 39 | COCCOc1cc2[nH]nc(-c3cc(-c4ccc(C(=O)N5CC[C@H](F)C5)cc4)no3)c2cc1F [A32, 5-fluoro-3-(3-{4-[(3S)-3-fluoropyrrolidine-1-carbonyl]phenyl}-1,2-oxazol-5-yl)-6-(2-methoxyethoxy)-1H-indazole] |
| 1.3 | 61 | COCCOc1cc2[nH]nc(-c3cc(-c4ccc(C(=O)N5CC(OC)C5)cc4)no3)c2cc1F [A33, 5-fluoro-3-{3-[4-(3-methoxyazetidine-1-carbonyl)phenyl]-1,2-oxazol-5-yl}-6-(2-methoxyethoxy)-1H-indazole] |
| 0.83 | 120 | COCCOc1cc2[nH]nc(-c3cc(-c4ccc(C(=O)N5CC(C)(O)C5)cc4)no3)c2cc1F [A34, 1-(4-{5-[5-fluoro-6-(2-methoxyethoxy)-1H-indazol-3-yl]-1,2-oxazol-3-yl}benzoyl)-3-methylazetidin-3-ol] |
| 1.2 | 120 | COCCOc1cc2[nH]nc(-c3cc(-c4ccc(C(=O)N5CCN(C)CC5)cc4)no3)c2cc1F [A36, 5-fluoro-6-(2-methoxyethoxy)-3-{3-[4-(4-methylpiperazine-1-carbonyl)phenyl]-1,2-oxazol-5-yl}-1H-indazole] |
| 2 | 79 | COCCOc1cc2[nH]nc(-c3cc(-c4ccc(N5CCN(C)CC5)cc4)no3)c2cc1F [A37, 5-fluoro-6-(2-methoxyethoxy)-3-{3-[4-(4-methylpiperazin-1-yl)phenyl]-1,2-oxazol-5-yl}-1H-indazole] |
| 1.7 | 150 | COCCOc1cc2[nH]nc(-c3cc(-c4ccc(N5CCN(C)CC5)nc4)no3)c2cc1F [A39, 5-fluoro-6-(2-methoxyethoxy)-3-{3-[6-(4-methylpiperazin-1-yl)pyridin-3-yl]-1,2-oxazol-5-yl}-1H-indazole] |
